Target: human APJ receptor (Homo sapiens (Human), UniProt P35414)
Assay: [35S]GTPγS binding assay on membranes from CHO cells stably expressing human APJ receptor
Format: biochemical
Conditions: membranes of CHO cells stably expressing human APJ receptor, read-out: Activity hAPJ SPA EC50 IP
Procedure, shortened: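 [35S]GTPγS binding measured on membranes from CHO cells stably expressing FLAG-tagged human APJ, with GDP, MgCl2 and NaCl levels optimized beforehand. Incubation 90 min at RT, imager read-out; EC50 from non-linear regression, averaged over several independent experiments.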

human APJ receptor, sequence (P35414 whole entry): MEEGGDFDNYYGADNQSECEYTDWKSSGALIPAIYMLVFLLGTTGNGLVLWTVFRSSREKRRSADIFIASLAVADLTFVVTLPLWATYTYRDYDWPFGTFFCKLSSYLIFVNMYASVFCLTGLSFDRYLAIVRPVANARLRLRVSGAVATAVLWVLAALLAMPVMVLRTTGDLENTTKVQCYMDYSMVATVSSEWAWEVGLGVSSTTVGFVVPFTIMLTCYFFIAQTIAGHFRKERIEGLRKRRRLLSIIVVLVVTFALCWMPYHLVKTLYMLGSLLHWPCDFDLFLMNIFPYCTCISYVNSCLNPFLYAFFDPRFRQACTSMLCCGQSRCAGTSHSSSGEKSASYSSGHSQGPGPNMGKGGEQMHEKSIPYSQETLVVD

Structure (SMILES)	EC50 [nM]
CC[C@H]([C@@H]1CCCCO1)n1c(NS(=O)(=O)[C@@H](C)[C@H](OC)c2ncc(Cl)cn2)nnc1-c1cccc(OC)n1 (single isomer, unassigned) [Example 325.0]	0.33
CC[C@H]([C@@H]1CCCCO1)n1c(NS(=O)(=O)[C@@H](C)[C@H](OC)c2ncc(Cl)cn2)nnc1-c1cccc(OC)n1 (single isomer, unassigned) [Example 326.0]	0.14
CC[C@H]([C@@H]1CCCCO1)n1c(NS(=O)(=O)[C@@H](C)[C@H](OC)c2ncc(Cl)cn2)nnc1-c1cccc(OC)n1 (single isomer, unassigned) [Example 327.0]	0.11
CC[C@H]([C@@H]1CCCCO1)n1c(NS(=O)(=O)[C@@H](C)[C@H](OC)c2ncc(Cl)cn2)nnc1-c1cccc(OC)n1 (single isomer, unassigned) [Example 328.0]	0.064
CC[C@H]([C@@H]1CCCCO1)n1c(NS(=O)(=O)[C@@H](C)[C@H](OC)c2ncc(C)cn2)nnc1-c1cccc(OC)n1 (single isomer, unassigned) [Example 329.0]	1.4
CC[C@H]([C@@H]1CCCCO1)n1c(NS(=O)(=O)[C@@H](C)[C@H](OC)c2ncc(C)cn2)nnc1-c1cccc(OC)n1 (single isomer, unassigned) [Example 330.0]	0.23
CC[C@H]([C@@H]1CCCCO1)n1c(NS(=O)(=O)[C@@H](C)[C@H](OC)c2ncc(C)cn2)nnc1-c1cccc(OC)n1 (single isomer, unassigned) [Example 331.0]	0.6
CC[C@H]([C@@H]1CCCCO1)n1c(NS(=O)(=O)[C@@H](C)[C@H](OC)c2ncc(C)cn2)nnc1-c1cccc(OC)n1 (single isomer, unassigned) [Example 332.0]	0.12
CC[C@H]([C@@H]1CCCCO1)n1c(NS(=O)(=O)[C@@H](C)[C@H](OC)c2ncc(C)cn2)nnc1-c1cncc(C)c1 (single isomer, unassigned) [Example 333.0]	7.7
CC[C@H]([C@@H]1CCCCO1)n1c(NS(=O)(=O)[C@@H](C)[C@H](OC)c2ncc(C)cn2)nnc1-c1cncc(C)c1 (single isomer, unassigned) [Example 334.0]	29
CC[C@H]([C@@H]1CCCCO1)n1c(NS(=O)(=O)[C@@H](C)[C@H](OC)c2ncc(C)cn2)nnc1-c1cncc(C)c1 (single isomer, unassigned) [Example 335.0]	14
COc1cccc(-c2nnc(NS(=O)(=O)[C@@H](C)[C@H](OC)c3ncc(Cl)cn3)n2[C@H](C)c2cncnc2)n1 (single isomer, unassigned) [Example 336.0, (1R,2S)-1-(5-chloropyrimidin-2-yl)-1-methoxy-N-(5-(6-methoxypyridin-2-yl)-4-((R)-1-(pyrimidin-5-yl)ethyl)-4H-1,2,4-triazol-3-yl)propane-2-sulfonamide or (1R,2S)-1-(5-chloropyrimidin-2-yl)-1-methoxy-N-(5-(6-methoxypyridin-2-yl)-4-((S)-1-(pyrimidin-5-yl)ethyl)-4H-1,2,4-triazol-3-yl)propane-2-sulfonamide]	15
COc1cccc(-c2nnc(NS(=O)(=O)[C@@H](C)[C@H](OC)c3ncc(Cl)cn3)n2[C@H](C)c2cncnc2)n1 (single isomer, unassigned) [Example 337.0, (1R,2S)-1-(5-chloropyrimidin-2-yl)-1-methoxy-N-(5-(6-methoxypyridin-2-yl)-4-((R)-1-(pyrimidin-5-yl)ethyl)-4H-1,2,4-triazol-3-yl)propane-2-sulfonamide or (1R,2S)-1-(5-chloropyrimidin-2-yl)-1-methoxy-N-(5-(6-methoxypyridin-2-yl)-4-((S)-1-(pyrimidin-5-yl)ethyl)-4H-1,2,4-triazol-3-yl)propane-2-sulfonamide]	1.4
